Tests used:
GR = molecular target: T1, GR (Homo sapiens, UniProt P04150); assay: In vitro GR luciferase reporter assay (antagonist mode); format: cell-based; conditions: CHO-K1-GR-MMTV-Luc reporter cells, 10 nM dexamethasone, 18-24 hours
T1 construct: expressed in transfected cells; host or cells: CHO-K1 (Chinese hamster ovary) reporter cells carrying GR and MMTV-Luc
T1 sequence (P04150 1-777): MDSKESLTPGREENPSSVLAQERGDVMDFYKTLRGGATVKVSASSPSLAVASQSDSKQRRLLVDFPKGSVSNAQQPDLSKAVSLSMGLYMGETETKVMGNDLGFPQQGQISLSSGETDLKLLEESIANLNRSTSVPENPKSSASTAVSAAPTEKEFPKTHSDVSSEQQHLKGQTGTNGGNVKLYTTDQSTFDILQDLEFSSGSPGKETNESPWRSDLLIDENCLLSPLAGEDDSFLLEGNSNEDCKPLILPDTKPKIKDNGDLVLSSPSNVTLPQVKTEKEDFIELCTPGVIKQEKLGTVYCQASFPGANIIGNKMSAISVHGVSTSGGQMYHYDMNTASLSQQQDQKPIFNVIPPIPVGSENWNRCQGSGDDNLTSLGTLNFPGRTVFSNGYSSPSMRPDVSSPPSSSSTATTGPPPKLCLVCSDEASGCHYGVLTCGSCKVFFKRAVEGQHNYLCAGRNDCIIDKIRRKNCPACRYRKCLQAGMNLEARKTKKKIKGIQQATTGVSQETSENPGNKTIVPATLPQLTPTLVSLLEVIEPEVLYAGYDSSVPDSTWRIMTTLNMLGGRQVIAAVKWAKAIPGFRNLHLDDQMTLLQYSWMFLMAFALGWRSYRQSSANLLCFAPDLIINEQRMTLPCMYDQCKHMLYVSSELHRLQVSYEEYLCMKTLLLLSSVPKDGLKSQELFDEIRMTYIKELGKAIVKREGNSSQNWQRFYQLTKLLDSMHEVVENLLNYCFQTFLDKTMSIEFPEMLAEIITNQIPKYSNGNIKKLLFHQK
Source text: Example 4: In Vitro GR Luciferase Reporter Assay
• Cell Line: CIH-K1-GR-MMTV-Luc reporter cells • Culture Media: DMEM (with phenol red) +10% FBS • Assay Media: DMEM (without phenol red) +10% CSS
Culture CHO-K1-GR-MMTV-Luc reporter cells in 15 cm plates in Culture Media at conditions less than 90% confluence.
Prepare 200× DMSO 1:5 serial dilutions of control and test compounds in 96-well non-sterile V bottom plate in DMSO, 8 serial dilutions for each compound.
Prepare 5× Assay Media diluted compound serial dilutions in 96-well non-sterile V bottom plate: Add 97.5 uL/well of Assay Media into 96-well then add 2.5 ul of 200× concentration of compounds and mix well.
Seed cells for Antagonist Assay: 1.5×10^6 CHO-K1-GR-MMTV-Luc reporter cells were seeded in a Corning 3707 flat clear bottom 384-well white TC plate in 20 ul of Assay Media containing 12.5 nM Dexamethasone (final concentration=10nM). […]
Read plates: Equilibrate appropriate amount of Promega OneGlo luciferase reagent to room temperature. Remove the plates from incubator and add 25 uL of OneGlo reagent/well by multiple channel pipette and read the plates with Tecan F500 luminometer within 3 minutes.
The ability of the compounds disclosed herein to inhibit GR activity was quantified and the respective IC50 value was determined. […]

AR = assay: In vitro AR agonism assay in LNAR reporter cell line; format: cell-based; conditions: for Relative Maximum Response to Mifepristone: LNAR cells (overexpressed AR, 4xARE-Luc), RPMI + 10% CSS, Mifepristone maximum response set to 1
Protocol: Example 5: In Vitro AR Agonisin Assay
The AR agonism assay was done in the LNAR reporter cell line which has overexpressed AR and 4×ARE-Luc genes. This cell line is sensitive to even minor partial AR agonism activity in hormone-deprived media (CSS). The assays were done in RPMI (without phenol red) +10% CSS using 6000 LNAR cells/well in 384-well plates and compounds were incubated with cells in […] incubator for 8-24 hrs. OneGlo reagent (25 uL/well) was added and plates were read with luminometer within 3 minutes.
To gauge the AR partial agonism activity, Mifepristone is included as a standard in the assay. AR agonism assay results are quantified by determining the ratio of the maximum response of individual compounds to the maximum response of Mifepristone (arbitrarily set to 1). Values of Table 4 are reported as Relative Maximum Response to Mifepristone. This general trend of AR agonism was shown for the class of compounds described herein.

IC50 (GR) | Compound | Relative Maximum Response to Mifepristone (AR) | further results
> 100 nM | Cc1ccc([C@H]2C[C@@]3(C)[C@@H](CC[C@@]3(O)C#CC(C)(F)F)[C@@H]3CCC4=CC(=O)CCC4=C32)cc1F |  | 
≤ 100 nM | [2H]C([2H])([2H])C#C[C@]1(O)[C@H](C)C[C@H]2[C@@H]3CCC4=CC(=O)CCC4=C3[C@@H](c3cc(F)c(C)c(F)c3)C[C@@]21C |  | 
 | CC(C)C#C[C@]1(O)CC[C@H]2[C@@H]3CCC4=CC(=O)CCC4=C3[C@@H](c3ccc(N(C)C)c(F)c3)C[C@@]21C | A (A: ≤0.4) | 
 | CN(C)c1ccc([C@H]2C[C@@]3(C)[C@@H](CC[C@@]3(O)C#CC(C)(C)C)[C@@H]3CCC4=CC(=O)CCC4=C32)cc1 | A (A: ≤0.4) | 
 | CC#C[C@]1(O)CC[C@H]2[C@@H]3CCC4=CC(=O)CCC4=C3[C@@H](c3ccc(N(C)C)cc3)C[C@@]21C [Mifepristone, reference compound] |  | concentration showing strong partial AR agonism (AR; LNAR reporter cells, hormone-deprived media (CSS)): ≥ 10 nM
